What was measured:
[1] = tested on: CDAHFD induced late stage NAFLD/NASH in mice; assay: Rescue effect of TOFA in CDAHFD induced late-stage NAFLD/NASH progression; assay type: in vivo, C57BL/6 male mice; settings: 250 mg/kg daily, four weeks
Procedure: (§1) Six-week-old C57BL/6 male mice were fed with a L-Amino Acid Diet With 60 kcal % Fat With 0.1% Methionine and No Added Choline (Research Diets A06071302i) for eight weeks before introduction of either vehicle (control) or 250 mg/kg of TOFA daily via twice daily controlled oral gavage for an additional four weeks (FIG. 3A). Upon study termination at 12 weeks, serum and liver samples were collected. Serum liver damage biomarkers, ALT and AST, were measured by commercially available kits (abcam105134 and abcam 105135, respectively). Hepatic and serum triglyceride levels were measured from a commercially available kit (abcam65336). Liver samples were fixed in 4% paraformaldehyde and embedded in paraffin blocks for sectioning and subsequently stained with hematoxylin and eosin (H&E) or Picrosirius Red with a fast green dye background. Frozen fresh liver tissue was embedded in OCT, sectioned, and subsequently stained with Oil Red O.

[2] = tested on: PPAR signaling pathway; assay: Transcriptional analysis of liver samples from 60% HFD mouse model of diet induced obesity; assay type: in vivo, C57BL/6J male mice
Procedure: Six-week old C57BL/6J male mice were fed with a 60 kcal % fat diet (Research Diets A12492i) for seven weeks before introduction of either control or 125 mg/kg, BID, initial loading dose of TOFA daily via controlled oral gavage for one week (FIG. 2A). Mice were then treated with either vehicle (control) or 62.5 mg/kg, BID, maintenance dose of TOFA daily via oral gavage for three additional weeks. Upon study termination at 11 weeks, liver samples were collected. Total RNA was extracted from liver tissues (Qiagen RNeasy kit 74106), cDNA libraries were constructed (Roche KAPA HyperPrep kit), sequenced on the NovaSeq6000 platform (Novogene), and a downstream analysis pipeline was performed. Differentially expressed genes (DEGs) were defined by at least one log2-fold change (2-fold in linear scale) with an FDR cutoff of 0.05. For validation, total RNA was used to prepare CDNA (BioRAD iScript™ Reverse Transcription) according to manufacturer's protocol and qPCR was performed with fast SYBR Green Mix (ThermoFisher A25742) on the QuantStudio6 System (Applied Biosystems).

[3] = tested on: PPAR signaling pathway; assay: RNA sequencing, qPCR and western blot of liver samples from CDAHFD late stage NAFLD/NASH mice; assay type: in vivo, C57BL/6 male mice
Procedure: as §1
Liver samples were collected from mice in Example 3 (see above). Total RNA was extracted from liver tissues (Qiagen RNeasy kit), cDNA libraries were constructed (Roche KAPA HyperPrep kit), sequenced on the NovaSeq6000 platform (Novogene), and a downstream analysis pipeline was performed. Differentially expressed genes (DEGs) were defined by at least one log2-fold change (2-fold in linear scale) with an FDR cutoff of 0.05. For validation, total RNA was used to prepare cDNA (BioRAD iScript™ Reverse Transcription) according to manufacturer's protocol and quantitative polymerase chain reaction (qPCR) was performed with fast SYBR Green Mix (ThermoFisher) on the QuantStudio6 System (Applied Biosystems). Protein expression levels were measured by western blot using antibodies against very low density lipoprotein receptor (VLDLR) (AF2258, 1:2000) and btubulin (CST2146, 1:1000). Membranes were developed using a horse radish peroxidase (HRP) secondary antibody (1:5000) and visualized using an enhanced chemiluminescent HRP substrate (Thermo34577).

[4] = tested on: 60% kcal fat diet induced metabolic syndrome and early stage NAFLD in mice; assay: Rescue effect of TOFA in 60% kcal fat diet induced early-stage hepatic steatosis and associated metabolic disorders; assay type: in vivo, C57BL/6 male mice
Procedure: Six-week-old C57BL/6 male mice were fed with a 60 kcal % fat diet (Research Diets A12492i) for seven weeks before introduction of either vehicle (control) or 250 mg/kg initial loading dose of TOFA daily via twice daily oral gavage for one week (FIG. 2A). Mice were then treated with either vehicle (control) or 125 mg/kg maintenance dose of TOFA daily via twice daily gavage for three additional weeks. Mice weights were tracked during the entire time course. After three weeks of treatment, an intraperitoneal glucose tolerance test (IP-GTT) and insulin tolerance test (IP-ITT) were performed. Prior to these tests, mice were fasted for six hours before a challenge of either 1 g/kg D-glucose or 0.75 U/kg HumulinR (Eli Lilly) and blood glucose levels were monitored for two hours (Bayer Contour Next). Venous fasting blood was collected through the tail vein and used to measure fasting insulin levels by commercially available ELISA kits (CrystalChem90080). Prior to harvest, mice underwent whole body composition analysis (EchoMRI™ 2012). Upon study termination at 11 weeks, serum and liver samples were collected. Serum liver damage biomarkers, ALT and AST, were measured by commercially available kits (abcam 105134 and abcam105135, respectively). Hepatic and serum triglyceride levels were measured from a commercially available kit (abcam65336).

[5] = scored per Kleiner, et al. (2005)
[6] = 125 mg/kg BID 1 week then 62.5 mg/kg BID 3 weeks, oral gavage
[7] = liver samples of Example 3, RNA-seq
[8] = 250 mg/kg daily 1 week then 125 mg/kg daily 3 weeks, twice daily oral gavage

CCCCCCCCCCCCCCOc1ccc(C(=O)O)o1 [TOFA, 5-(Tetradecyloxy)-2-furoic acid]
cytoplasmic vacuolations by H&E staining ([1]; liver sections): decreased cytoplasmic vacuolations
fibrosis by Picrosirius Red staining ([1]; liver sections): decreased fibrosis
lipid content by Oil Red O staining ([1]; liver sections): reduction in lipid content
ballooning (histopathological score) [1, 5]: reductions
degree of hepatic steatosis (histopathological score) [1, 5]: decreased degree of hepatic steatosis
fibrosis (histopathological score) [1, 5]: reductions
inflammation (histopathological score) [1, 5]: reductions
liver triglyceride content ([1]; twice daily oral gavage): reduced
serum ALT activity levels ([1]; twice daily oral gavage): significant decrease
serum AST levels ([1]; twice daily oral gavage): averaged reduction
serum triglyceride levels ([1]; twice daily oral gavage): no increase
genes in the PPAR signaling pathway (BioPlanet 2019 database) [2, 6]: upregulated various genes under PPAR transcriptional control
highest upregulated genes (RNAseq of liver) [2, 6]: canonical PPAR-alpha target genes
transcriptional regulatory relationship analysis of upregulated genes (TRRUST Transcription Factors 2019) [2, 6]: PPARA is one of the major acting factors in transcriptional regulation
downstream PPAR target genes by RT-qPCR (fatty acid beta-oxidation, acyl-CoA processing, lipoprotein uptake and metabolism) ([2]; liver mRNA relative to r18s mRNA): upregulated
protein expression levels of VLDLR (western blot) ([3]; liver samples of Example 3): increase in protein expression levels
GSEA: inflammatory response [3, 7]: negative correlation
GSEA: oxidative phosphorylation, fatty acid metabolism, peroxisomes [3, 7]: significantly upregulated
genes of the PPAR signaling pathway (2021 KEGG human database) [3, 7]: upregulated various genes under PPAR transcriptional control
expression of VLDLR gene (mRNA, qPCR) ([3]; liver samples of Example 3, relative to r18S mRNA): significant increase
highest upregulated genes (RNA-seq of liver) ([3]; liver samples of Example 3, FDR cutoff 0.05, 2-fold change): canonical PPAR-alpha target genes
body weight [4, 8]: weight loss compared to the vehicle control treated mice
fat mass relative to whole body weight (EchoMRI) [4, 8]: significant reduction of fat mass
food intake [4, 8]: without impacting food intake
lean mass relative to whole body weight (EchoMRI) [4, 8]: increase in lean mass
fasting blood glucose levels ([4]; after three weeks of treatment, 6 h fast): vast improvements
insulin tolerance test (IP-ITT) ([4]; after three weeks of treatment, 6 h fast, 0.75 U/kg HumulinR): improved insulin sensitivity
intraperitoneal glucose tolerance test (IP-GTT) ([4]; after three weeks of treatment, 6 h fast, 1 g/kg D-glucose): more glucose tolerant
fasting insulin levels ([4]; after three weeks of treatment, ELISA): significantly lower
hepatic levels of triglycerides ([4]; study termination at 11 weeks): significantly reduced
serum ALT ([4]; study termination at 11 weeks): no significant changes
serum AST ([4]; study termination at 11 weeks): no significant changes
serum levels of triglycerides ([4]; study termination at 11 weeks): significantly reduced

— US20260034091A1, “Compositions and Methods for Treating Metabolic Disorders” (The Regents of the University of California, priority 2022, published 2026)
